Results on five molecules are retold here after publication PMC10720658 (Frontiers in parasitology, 2023).

T1 sequence (Q582V7 entry or part of it): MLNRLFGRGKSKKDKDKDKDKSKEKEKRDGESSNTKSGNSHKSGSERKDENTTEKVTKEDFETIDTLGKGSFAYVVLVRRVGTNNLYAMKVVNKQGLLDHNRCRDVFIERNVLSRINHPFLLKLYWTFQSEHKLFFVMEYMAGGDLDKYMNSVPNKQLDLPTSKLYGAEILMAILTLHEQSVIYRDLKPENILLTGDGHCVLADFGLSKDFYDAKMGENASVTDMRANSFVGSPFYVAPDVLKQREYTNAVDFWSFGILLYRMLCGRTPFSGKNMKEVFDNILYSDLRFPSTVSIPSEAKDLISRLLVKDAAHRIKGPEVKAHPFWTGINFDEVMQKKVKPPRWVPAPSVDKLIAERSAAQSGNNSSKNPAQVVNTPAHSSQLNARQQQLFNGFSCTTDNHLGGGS

The assay has as its target T1, AEK1 (Trypanosoma brucei, UniProt Q582V7).
T1 construct: gene Tb03.48O8.470
Put plainly: TR-FRET displacement of probe SCP-2. Type of assay: binding. Conditions: read-out: % control^a. (In general: In TR-FRET formats the signal depends on donor and acceptor labels being close together.)
`Cn1cc(-c2[nH]c3cc(NC(=O)[C@H](N)C4CCCCC4)cc4c3c2C=NNC4=O)cn1` [PF-477736]: the probe binding remaining (% of control) at 1 µM came to 23.1%. As to `Cc1nc(Nc2[nH]nc3c2CN(C(=O)N[C@H](CN(C)C)c2ccccc2)C3(C)C)c2sccc2n1` [PF-3758309], the probe binding remaining (% of control) at 1 µM turned out to be 38.2%. For `CCS(=O)(=O)c1cccc(-c2cc(C(=O)NC3CCN(C)CC3)c(C)c3[nH]c4ncc(C)cc4c23)c1` [TAK-901] the value was 20.1%; for `COc1cc2c(Oc3ccc4[nH]c(C)cc4c3F)ncnc2cc1OCCCN1CCCC1` [Cediranib (AZD2171)], 36.6%; for `Cc1c[nH]c2nc(Nc3ccc(N4CCN(C)CC4)c(F)c3)nc(-c3cccc(CC#N)c3)c12` [SGI-7079], 43.7%.
